In US20250179061A1 (SIRONAX LTD., priority 2022, published 2025):

test system: HT-29 cells; assay: HT-29 necroptosis cell viability assay (TNF-α/SMAC mimetic/zVAD-FMK, CellTiter-Glo); assay type: cell-based; settings: Homo sapiens, HT-29, HT-29 necroptosis cell viability assay; class symbols for IC50; read-out: Activity
How it was run: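 Necroptosis was triggered by TNF-α (10 ng/ml), SMAC mimetic (6 μM) and zVAD-FMK (10 μM) in serum-free medium during 20 h compound exposure (10 concentrations, threefold steps) of HT-29 cells. IC50 from duplicate dose-responses uses CellTiter-Glo ATP luminescence as viability read-out.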

Row | Structure (SMILES) | IC50 [nM]
1 | CC(C)(C)CC(=O)Nc1cc(Oc2ccc(-n3ncn(Cc4c(F)cccc4F)c3=O)cc2)ccn1 [Example 519, N-[4-[4-[4-[(2,6-difluorophenyl)methyl]-5-oxo-1,2,4-triazol-1-yl]phenoxy]-2-pyridyl]-3,3-dimethyl-butanamide] | 100 to 1000
2 | CC(C)(C)OC(=O)N1CC2(CCN2c2cc(Oc3ccc(-n4ncn(Cc5c(F)cccc5F)c4=O)cc3)ccn2)C1 [Example 499, tert-butyl 1-(4-(4-(4-(2,6-difluorobenzyl)-5-oxo-4,5-dihydro-1H-1,2,4-triazol-1-yl)phenoxy)pyridin-2-yl)-1,6-diazaspiro[3.3]heptane-6-carboxylate] | 100 to 1000
3 | N#Cc1cc(S(=O)(=O)c2ccc(-n3ncn(Cc4ccccc4)c3=O)cc2)ccn1 [Example 615, 4-((4-(4-benzyl-5-oxo-4,5-dihydro-1H-1,2,4-triazol-1-yl)phenyl)sulfonyl)picolinonitrile] | < 100
4 | Cc1nc(C(C)(C)O)n(C)c1Oc1ccc(-n2ncn(Cc3c(F)cccc3F)c2=O)cc1F [Example 133, 4-(2,6-difluorobenzyl)-2-(3-fluoro-4-((2-(2-hydroxypropan-2-yl)-1,4-dimethyl-1H-imidazol-5-yl)oxy)phenyl)-2,4-dihydro-3H-1,2,4-triazol-3-one] | 100 to 1000
5 | Cc1nc([C@@H](C)O)sc1Oc1ccc(-n2nc3n(c2=O)[C@H](c2ccccc2)CC3)cc1F (single isomer, unassigned) [Example 150] | < 100
6 | Cc1n[nH]c(C)c1Oc1ccc(-n2ncn(Cc3c(F)cccc3F)c2=O)cc1F [Example 178, 4-(2,6-difluorobenzyl)-2-(4-((3,5-dimethyl-1H-pyrazol-4-yl)oxy)-3-fluorophenyl)-2,4-dihydro-3H-1,2,4-triazol-3-one] | < 100
7 | Cc1nc(C(=O)N2CC(C)(N)C2)sc1Oc1ccc(-n2ncn(Cc3ccccc3F)c2=O)cc1F [Example 591, 2-(4-((2-(3-amino-3-methylazetidine-1-carbonyl)-4-methylthiazol-5-yl)oxy)-3-fluorophenyl)-4-(2-fluorobenzyl)-2,4-dihydro-3H-1,2,4-triazol-3-one] | < 100
8 | Cc1nc(N2CC(C)(NC(=O)OC(C)(C)C)C2)sc1C(C)(O)c1ccc(-n2ncn(Cc3c(F)cccc3F)c2=O)cc1 (stereo not shown) [Example 516, tert-butyl (1-(5-(1-(4-(4-(2,6-difluorobenzyl)-5-oxo-4,5-dihydro-1H-1,2,4-triazol-1-yl)phenyl)-1-hydroxyethyl)-4-methylthiazol-2-yl)-3-methylazetidin-3-yl)carbamate] | < 100
9 | Cc1nc(C2CCOC2)sc1Oc1ccc(-n2ncn(Cc3c(F)cccc3F)c2=O)cc1 (stereo not shown) [Example 550, 4-(2,6-difluorobenzyl)-2-(4-((4-methyl-2-(tetrahydrofuran-3-yl)thiazol-5-yl)oxy)phenyl)-2,4-dihydro-3H-1,2,4-triazol-3-one] | < 100

same assay, conditions: Homo sapiens, HT-29, HT-29 necroptosis cell viability, IC50 class symbols; read-out: Activity

Row | Structure (SMILES) | IC50 [nM]
10 | C[C@H]1[C@@H](N)CN1c1cc(Oc2ccc(-n3ncn(Cc4c(F)cccc4F)c3=O)cc2F)c(F)cn1 [Example 415, 2-(4-((2-((2S,3S)-3-amino-2-methylazetidin-1-yl)-5-fluoropyridin-4-yl)oxy)-3-fluorophenyl)-4-(2,6-difluorobenzyl)-2,4-dihydro-3H-1,2,4-triazol-3-one] | < 100
11 | N#CC1(CNc2cc(Oc3ccc(-n4ncn(Cc5c(F)cccc5F)c4=O)cc3)ccn2)CC1 [Example 381, 1-(((4-(4-(4-(2,6-difluorobenzyl)-5-oxo-4,5-dihydro-1H-1,2,4-triazol-1-yl)phenoxy)pyridin-2-yl)amino)methyl)cyclopropane-1-carbonitrile] | < 100
12 | CC1(N)CN(c2nccc(Oc3ccc(-n4ncn(Cc5c(F)cccc5F)c4=O)cc3F)c2Cl)C1 [Example 420, 2-(4-((2-(3-amino-3-methylazetidin-1-yl)-3-chloropyridin-4-yl)oxy)-3-fluorophenyl)-4-(2,6-difluorobenzyl)-2,4-dihydro-3H-1,2,4-triazol-3-one] | < 100
13 | CC1(C#N)CCN(c2cc(Oc3ccc(-n4ncn(Cc5c(F)cccc5F)c4=O)cc3F)c(F)cn2)C1 (stereo not shown) [Example 394, 1-(4-(4-(4-(2,6-difluorobenzyl)-5-oxo-4,5-dihydro-1H-1,2,4-triazol-1-yl)-2-fluorophenoxy)-5-fluoropyridin-2-yl)-3-methylpyrrolidine-3-carbonitrile] | < 100
14 | O=c1n(Cc2c(F)cccc2F)cnn1-c1ccc(Oc2ccccc2[N+](=O)[O-])cc1 [Example 433, 4-(2,6-difluorobenzyl)-2-(4-(2-nitrophenoxy)phenyl)-2,4-dihydro-3H-1,2,4-triazol-3-one] | 100 to 1000
15 | Cc1cnc(N2CC(C)(C#N)C2)cc1Oc1ccc(-n2ncn(Cc3c(F)cccc3F)c2=O)cc1Cl [Example 251, 1-(4-(2-chloro-4-(4-(2,6-difluorobenzyl)-5-oxo-4,5-dihydro-1H-1,2,4-triazol-1-yl)phenoxy)-5-methylpyridin-2-yl)-3-methylazetidine-3-carbonitrile] | < 100
16 | CC(C)(C)OC(=O)Nc1cc(Oc2ccc(-n3ncn(Cc4c(F)cccc4F)c3=O)cc2)ccn1 [Example 309, tert-butyl (4-(4-(4-(2,6-difluorobenzyl)-5-oxo-4,5-dihydro-1H-1,2,4-triazol-1-yl)phenoxy)pyridin-2-yl)carbamate] | < 100
17 | C[C@H]1C[C@H](N)CN1c1cc(Oc2ccc(-n3ncn(Cc4c(F)cccc4F)c3=O)cc2)ccn1 [Example 316, 2-(4-((2-((2S,4S)-4-amino-2-methylpyrrolidin-1-yl)pyridin-4-yl)oxy)phenyl)-4-(2,6-difluorobenzyl)-2,4-dihydro-3H-1,2,4-triazol-3-one] | < 100
18 | COC1(C#N)CN(c2cc(Oc3ccc(-n4ncn(Cc5c(F)cccc5F)c4=O)cc3)c(F)cn2)C1 [Example 302, 1-(4-(4-(4-(2,6-difluorobenzyl)-5-oxo-4,5-dihydro-1H-1,2,4-triazol-1-yl)phenoxy)-5-fluoropyridin-2-yl)-3-methoxyazetidine-3-carbonitrile] | < 100
19 | Nc1cnc(Cl)cc1Oc1ccc(-n2ncn(Cc3c(F)cccc3F)c2=O)cc1 [Example 441, 2-(4-((5-amino-2-chloropyridin-4-yl)oxy)phenyl)-4-(2,6-difluorobenzyl)-2,4-dihydro-3H-1,2,4-triazol-3-one] | < 100
20 | COC1(C#N)CN(c2cc(Oc3ccc(-n4ncn(Cc5c(F)cccc5F)c4=O)cc3F)c(C)cn2)C1 [Example 239, 1-(4-(4-(4-(2,6-difluorobenzyl)-5-oxo-4,5-dihydro-1H-1,2,4-triazol-1-yl)-2-fluorophenoxy)-5-methylpyridin-2-yl)-3-methoxyazetidine-3-carbonitrile] | < 100
21 | N#Cc1cc(Oc2ccc(-n3ncn(Cc4c(F)cccc4F)c3=O)cc2F)c(F)cn1 [Example 402, 4-(4-(4-(2,6-difluorobenzyl)-5-oxo-4,5-dihydro-1H-1,2,4-triazol-1-yl)-2-fluorophenoxy)-5-fluoropicolinonitrile] | < 100
22 | CCOC1CN(c2nccc(Oc3ccc(-n4ncn(Cc5c(F)cccc5F)c4=O)cc3)c2C)C1 [Example 236, 4-(2,6-difluorobenzyl)-2-(4-((2-(3-ethoxyazetidin-1-yl)-3-methylpyridin-4-yl)oxy)phenyl)-2,4-dihydro-3H-1,2,4-triazol-3-one] | < 100
23 | Cc1nc(N2CC(C)(O)C2)sc1Oc1ccc(-n2ncn(Cc3c(F)cccc3F)c2=O)cc1F [Example 299, 4-(2,6-difluorobenzyl)-2-(3-fluoro-4-((2-(3-hydroxy-3-methylazetidin-1-yl)-4-methylthiazol-5-yl)oxy)phenyl)-2,4-dihydro-3H-1,2,4-triazol-3-one] | < 100
24 | Cc1cnc(Cl)cc1Oc1ccc(-n2ncn(Cc3c(F)cccc3F)c2=O)cc1Cl [Example 290, 2-(3-chloro-4-((2-chloro-5-methylpyridin-4-yl)oxy)phenyl)-4-(2,6-difluorobenzyl)-2,4-dihydro-3H-1,2,4-triazol-3-one] | < 100
25 | C[C@H]1[C@H](C#N)CN1c1cc(Oc2ccc(-n3ncn(Cc4c(F)cccc4F)c3=O)cc2F)c(Cl)cn1 [Example 233, (2S,3R)-1-(5-chloro-4-(4-(4-(2,6-difluorobenzyl)-5-oxo-4,5-dihydro-1H-1,2,4-triazol-1-yl)-2-fluorophenoxy)pyridin-2-yl)-2-methylazetidine-3-carbonitrile] | < 100

same assay, conditions: Homo sapiens; HT-29 cells stimulated with TNF-α (10 ng/ml), SMAC mimetic (6 μM) and zVAD-FMK (10 μM); 20 hours; CellTiter-Glo ATP luminescence; geometric mean IC50 from 10 points; read-out: Activity

Row | Structure (SMILES) | IC50 [nM]
26 | Cn1cc(C(N)=O)nc1Oc1ccc(-n2nc3n(c2=O)[C@H](c2ccccc2)CC3)cc1F (single isomer, unassigned) [Example 685] | 100 to 1000
27 | Cc1cc(C(N)=O)oc1Oc1ccc(-n2nc3n(c2=O)[C@H](c2ccccc2)CC3)cc1F (single isomer, unassigned) [Example 694] | < 100
28 | Cc1nc(N2CC(N)(CO)C2)sc1Oc1ccc(-n2ncn(Cc3c(F)cccc3F)c2=O)cc1 [Example 71, 2-(4-((2-(3-amino-3-(hydroxymethyl)azetidin-1-yl)-4-methylthiazol-5-yl)oxy)phenyl)-4-(2,6-difluorobenzyl)-2,4-dihydro-3H-1,2,4-triazol-3-one] | < 100
29 | Cc1ncsc1Oc1ccc(-n2nc3n(c2=O)[C@H](c2ccccc2)CC3)cc1F (single isomer, unassigned) [Example 3] | < 100
30 | Cc1ncsc1Oc1ccc(-n2ncn(Cc3cc(Cl)ccn3)c2=O)cc1F [Example 9, 4-((4-chloropyridin-2-yl)methyl)-2-(3-fluoro-4-((4-methylthiazol-5-yl)oxy)phenyl)-2,4-dihydro-3H-1,2,4-triazol-3-one] | 100 to 1000
31 | Cc1ncsc1Oc1ccc(-n2ncn(Cc3ccccc3F)c2=O)cc1F [Example 8, 2-(3-fluoro-4-((4-methylthiazol-5-yl)oxy)phenyl)-4-(2-fluorobenzyl)-2,4-dihydro-3H-1,2,4-triazol-3-one] | < 100
